Measurements reported in patent publication US20020137929A1, “1 - (3-heterocyclylphenyl) isothiourea, -isourea, -guanidine and -amidine herbicidal agents” (Intellectual Property Department, BASF Aktiengesellschaft, priority 1998, published 2002).

Legend:
[1] = test system: IPOHE (Morningglory, Ivyleaf); assay: Preemergence herbicidal evaluation; format: in vivo, Ipomoea hederacea; conditions: rated 4-5 weeks after treatment
Summary of the method: (§1)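 Sown cups got a single aqueous acetone spray of test compound (roughly 0.0156–0.500 kg/ha) before seedlings emerged. Evaluation, 4–5 weeks on, used a 0–9 visual scale covering plant stand, vigor, size, malformation, chlorosis and general appearance compared with controls.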

[2] = test system: ECHORC (Watergrass (Calif.)); assay: Preemergence weed control under flooded paddy conditions; format: in vivo, Echinochloa oryzoides; conditions: rated 3-4 weeks after treatment
Summary of the method: (§2)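 First, seeds or propagules go into the top 0.5 cm of silt loam; next, water is held 1.5 to 3 cm over the soil; then compound (50/50 acetone/water) is pipetted into it at about 0.0313 to 0.500 kg/ha; finally plants are rated visually 0-9 after three to four weeks.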

[3] = test system: GALAP (Galium); assay: Postemergence herbicidal evaluation; format: in vivo, Galium aparine; conditions: postemergence
Summary of the method: (§3)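 Two-week seedlings sprayed postemergence at 40 psi; formulation: 1:1 acetone/water, 0.5% TWEEN 20; application ≈0.0156–0.500 kg/ha. Greenhouse grow-out, then 0–9 visual scoring at 4–5 weeks.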

[4] = test system: MOOVA (Monochoria); assay: Preemergence weed control under flooded paddy conditions; format: in vivo, Monochoria vaginalis; conditions: rated 3-4 weeks after treatment
Summary of the method: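 Silt loam, seeds in top 0.5 cm; flood held 1.5-3 cm; test cpd as acetone/water 50/50 into flood water, ~0.0313-0.500 kg/ha a.i.; greenhouse 3-4 wk; visual 0-9 score vs control.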

[5] = test system: ZEAMX (Corn, Field); assay: Preemergence herbicidal evaluation; format: in vivo, Zea mays; conditions: rated 4-5 weeks after treatment
Summary of the method: as §1

[6] = test system: SETVI (Foxtail, Green); assay: Postemergence herbicidal evaluation; format: in vivo, Setaria viridis; conditions: postemergence
Summary of the method: as §3

[7] = test system: ORYSAT (Rice, Tebonnet); assay: Postemergence herbicidal evaluation; format: in vivo, Oryza sativa, (L.) Tebonnet; conditions: postemergence
Summary of the method: as §3

[8] = test system: ECHCG (Barnyardgrass); assay: Postemergence herbicidal evaluation; format: in vivo, Echinochloa crus-galli; conditions: postemergence
Summary of the method: as §3

[9] = test system: TRZAWR (Wheat, Winter, cv Riband); assay: Preemergence herbicidal evaluation; format: in vivo, Triticum aestivum; conditions: rated 4-5 weeks after treatment
Summary of the method: as §1

[10] = test system: CYPIR (Rice Flatsedge); assay: Preemergence weed control under flooded paddy conditions; format: in vivo, Cyperus iria; conditions: rated 3-4 weeks after treatment
Summary of the method: as §2

[11] = test system: ABUTH (Velvetleaf); assay: Postemergence herbicidal evaluation; format: in vivo, Abutilon theophrasti; conditions: postemergence
Summary of the method: as §3

[12] = rate 0.0156 kg/ha, rating scale 0-9
[13] = rate 0.0313 kg/ha, rating scale 0-9
[14] = rate 0.0625 kg/ha, rating scale 0-9
[15] = rate 0.1250 kg/ha, rating scale 0-9
[16] = rate 0.2500 kg/ha, rating scale 0-9

## Cn1c(C(F)(F)F)cc(=O)n(-c2cc(N=C3SCC(=O)N3CC(=O)OCC3CC3)c(Cl)cc2F)c1=O [Compound 124, Cyclopropylmethyl 2-{{2-chloro-5-[3,6-dihydro-3-methyl-2,6-dioxo-4-(trifluoromethyl)-1(2H)-pyrimidinyl]-4-fluorophenyl}imino}-4-oxo-3-thiazolidineacetate]
[1]; rate 0.0156 kg/ha
  Preemergence herbicidal rating IPOHE: 0.0
[1]; rate 0.0313 kg/ha
  Preemergence herbicidal rating IPOHE: 0.0
[1]; rate 0.0625 kg/ha
  Preemergence herbicidal rating IPOHE: 0.0
[1]; rate 0.1250 kg/ha
  Preemergence herbicidal rating IPOHE: 0.0
[1]; rate 0.2500 kg/ha
  Preemergence herbicidal rating IPOHE: 1.0
[1]; rate 0.5000 kg/ha
  Preemergence herbicidal rating IPOHE: 6.0
[2]; 0.0313 kg/ha
  herbicidal effect rating, ECHORC: 5.0
[2]; 0.0625 kg/ha
  herbicidal effect rating, ECHORC: 5.0
[2]; 0.1250 kg/ha
  herbicidal effect rating, ECHORC: 9.0
[2]; 0.2500 kg/ha
  herbicidal effect rating, ECHORC: 8.0
[3]; rate 0.0156 kg/ha
  herbicidal rating GALAP: 0.0
[3]; rate 0.0313 kg/ha
  herbicidal rating GALAP: 1.0
[3]; rate 0.0625 kg/ha
  herbicidal rating GALAP: 6.0
[4]; 0.0313 kg/ha
  herbicidal effect rating, MOOVA: 0.0
[4]; 0.0625 kg/ha
  herbicidal effect rating, MOOVA: 0.0
[4]; 0.1250 kg/ha
  herbicidal effect rating, MOOVA: 0.0
[4]; 0.2500 kg/ha
  herbicidal effect rating, MOOVA: 7.0
[5]; rate 0.0156 kg/ha
  Preemergence herbicidal rating ZEAMX: 0.0
[5]; rate 0.0313 kg/ha
  Preemergence herbicidal rating ZEAMX: 0.0
[5]; rate 0.0625 kg/ha
  Preemergence herbicidal rating ZEAMX: 0.0
[5]; rate 0.1250 kg/ha
  Preemergence herbicidal rating ZEAMX: 0.0
[5]; rate 0.2500 kg/ha
  Preemergence herbicidal rating ZEAMX: 0.0
[5]; rate 0.5000 kg/ha
  Preemergence herbicidal rating ZEAMX: 1.0
[6]; rate 0.0156 kg/ha
  herbicidal rating SETVI: 3.0
[6]; rate 0.0313 kg/ha
  herbicidal rating SETVI: 5.0
[6]; rate 0.0625 kg/ha
  herbicidal rating SETVI: 5.0
[7]; rate 0.0156 kg/ha
  herbicidal rating ORYSAT: 3.3
[7]; rate 0.0313 kg/ha
  herbicidal rating ORYSAT: 3.0
[7]; rate 0.0625 kg/ha
  herbicidal rating ORYSAT: 3.0
[8]; rate 0.0156 kg/ha
  herbicidal rating ECHCG: 3.0
[8]; rate 0.0313 kg/ha
  herbicidal rating ECHCG: 3.0
[8]; rate 0.0625 kg/ha
  herbicidal rating ECHCG: 5.0
[9]; rate 0.0156 kg/ha
  Preemergence herbicidal rating TRZAWR: 0.0
[9]; rate 0.0313 kg/ha
  Preemergence herbicidal rating TRZAWR: 0.0
[9]; rate 0.0625 kg/ha
  Preemergence herbicidal rating TRZAWR: 0.0
[9]; rate 0.1250 kg/ha
  Preemergence herbicidal rating TRZAWR: 0.0
[9]; rate 0.2500 kg/ha
  Preemergence herbicidal rating TRZAWR: 0.0
[9]; rate 0.5000 kg/ha
  Preemergence herbicidal rating TRZAWR: 0.0
[10]; 0.0313 kg/ha
  herbicidal effect rating, CYPIR: 0.0
[10]; 0.0625 kg/ha
  herbicidal effect rating, CYPIR: 0.0
[10]; 0.1250 kg/ha
  herbicidal effect rating, CYPIR: 0.0
[10]; 0.2500 kg/ha
  herbicidal effect rating, CYPIR: 6.0
[11]; rate 0.0156 kg/ha
  herbicidal rating ABUTH: 7.0
[11]; rate 0.0313 kg/ha
  herbicidal rating ABUTH: 9.0
[11]; rate 0.0625 kg/ha
  herbicidal rating ABUTH: 9.0

## Cc1ccc(CN2C(=O)CSC2=Nc2cc(-n3c(=O)cc(C(F)(F)F)n(C)c3=O)c(F)cc2Cl)cc1C [Compound 147, 3-{4-Chloro-5-{[3-(3,4-dimethylbenzyl)-4-oxo-2-thiazolidinylidene]amino}-2-fluorophenyl}-1-methyl-6-(trifluoromethyl)-2,4(1H,3H)-pyrimidinedione]
[1]; [12]
  Preemergence herbicidal rating IPOHE: 0.0
[1]; [13]
  Preemergence herbicidal rating IPOHE: 0.0
[1]; [14]
  Preemergence herbicidal rating IPOHE: 0.0
[1]; [15]
  Preemergence herbicidal rating IPOHE: 0.0
[1]; [16]
  Preemergence herbicidal rating IPOHE: 0.0
[2]; 0.0313 kg/ha
  herbicidal effect rating, ECHORC: 5.0
[2]; 0.0625 kg/ha
  herbicidal effect rating, ECHORC: 7.0
[2]; 0.1250 kg/ha
  herbicidal effect rating, ECHORC: 9.0
[2]; 0.2500 kg/ha
  herbicidal effect rating, ECHORC: 9.0
[3]; rate 0.0156 kg/ha
  herbicidal rating GALAP: 0.0
[3]; rate 0.0313 kg/ha
  herbicidal rating GALAP: 1.0
[3]; rate 0.0625 kg/ha
  herbicidal rating GALAP: 3.0
[4]; 0.0313 kg/ha
  herbicidal effect rating, MOOVA: 7.0
[4]; 0.0625 kg/ha
  herbicidal effect rating, MOOVA: 9.0
[4]; 0.1250 kg/ha
  herbicidal effect rating, MOOVA: 9.0
[4]; 0.2500 kg/ha
  herbicidal effect rating, MOOVA: 9.0
[5]; [12]
  Preemergence herbicidal rating ZEAMX: 1.0
[5]; [13]
  Preemergence herbicidal rating ZEAMX: 1.0
[5]; [14]
  Preemergence herbicidal rating ZEAMX: 0.0
[5]; [15]
  Preemergence herbicidal rating ZEAMX: 1.0
[5]; [16]
  Preemergence herbicidal rating ZEAMX: 2.0
[6]; rate 0.0156 kg/ha
  herbicidal rating SETVI: 1.0
[6]; rate 0.0313 kg/ha
  herbicidal rating SETVI: 1.0
[6]; rate 0.0625 kg/ha
  herbicidal rating SETVI: 2.0
[7]; rate 0.0156 kg/ha
  herbicidal rating ORYSAT: 1.5
[7]; rate 0.0313 kg/ha
  herbicidal rating ORYSAT: 2.5
[7]; rate 0.0625 kg/ha
  herbicidal rating ORYSAT: 3.5
[8]; rate 0.0156 kg/ha
  herbicidal rating ECHCG: 1.0
[8]; rate 0.0313 kg/ha
  herbicidal rating ECHCG: 2.0
[8]; rate 0.0625 kg/ha
  herbicidal rating ECHCG: 1.0
[9]; [12]
  Preemergence herbicidal rating TRZAWR: 0.0
[9]; [13]
  Preemergence herbicidal rating TRZAWR: 0.0
[9]; [14]
  Preemergence herbicidal rating TRZAWR: 0.0
[9]; [15]
  Preemergence herbicidal rating TRZAWR: 0.0
[9]; [16]
  Preemergence herbicidal rating TRZAWR: 0.0
[10]; 0.0313 kg/ha
  herbicidal effect rating, CYPIR: 4.0
[10]; 0.0625 kg/ha
  herbicidal effect rating, CYPIR: 4.0
[10]; 0.1250 kg/ha
  herbicidal effect rating, CYPIR: 7.0
[10]; 0.2500 kg/ha
  herbicidal effect rating, CYPIR: 7.0
[11]; rate 0.0156 kg/ha
  herbicidal rating ABUTH: 9.0
[11]; rate 0.0313 kg/ha
  herbicidal rating ABUTH: 9.0
[11]; rate 0.0625 kg/ha
  herbicidal rating ABUTH: 9.0
